Results on 11 compounds are retold here after ChEMBL document CHEMBL4825722, “Discovery of Potent Selective Nonzinc Binding Autotaxin Inhibitor BIO-32546” (ACS Med Chem Lett, 2021).

Each structure is given as a SMILES string.

A short description of data set [1]: Protein binding in human plasma assessed as unbound fraction at 2 uM by rapid equilibrium dialysis method. The class given is ADME, cell-free. On the technique in general: In equilibrium dialysis free small molecules cross a membrane that holds back macromolecules.
Data set [2] can be described thus: Protein binding in rat plasma assessed as unbound fraction. The class given is ADME, cell-free.
The nature of data set [3]: Drug concentration in rat brain at 10 mg/kg, po after 4 hrs. The class given is ADME, organism-based. The settings on record: read-out: Ct.
The nature of data set [4]: Clearance in rat at 10 mg/kg, po. The class given is ADME, organism-based. The settings on record: in vivo.
Data set [5] can be described thus: Total brain to plasma concentration ratio in rat at 10 mg/kg, po measured after 4 hrs. The class given is ADME, organism-based. The settings on record: brain and plasma, read-out: BPR.
The target of the next data set is Autotaxin (Homo sapiens, UniProt Q13822). Description: Inhibition of human ATX assessed as reduction in LPA formation using FS-3 as substrate preincubated for 30 mins followed by substrate addition and measured after 2 hrs by FRET assay.
For data set [6], the target named is T1, hERG (KCNH2) (Homo sapiens, UniProt Q12809). The data set is described as follows: Inhibition of human ERG at 10 uM by automated patch-clamp assay relative to control. In general terms: In patch-clamp work, channel activity is measured electrically.
T1 sequence (Q12809 whole entry): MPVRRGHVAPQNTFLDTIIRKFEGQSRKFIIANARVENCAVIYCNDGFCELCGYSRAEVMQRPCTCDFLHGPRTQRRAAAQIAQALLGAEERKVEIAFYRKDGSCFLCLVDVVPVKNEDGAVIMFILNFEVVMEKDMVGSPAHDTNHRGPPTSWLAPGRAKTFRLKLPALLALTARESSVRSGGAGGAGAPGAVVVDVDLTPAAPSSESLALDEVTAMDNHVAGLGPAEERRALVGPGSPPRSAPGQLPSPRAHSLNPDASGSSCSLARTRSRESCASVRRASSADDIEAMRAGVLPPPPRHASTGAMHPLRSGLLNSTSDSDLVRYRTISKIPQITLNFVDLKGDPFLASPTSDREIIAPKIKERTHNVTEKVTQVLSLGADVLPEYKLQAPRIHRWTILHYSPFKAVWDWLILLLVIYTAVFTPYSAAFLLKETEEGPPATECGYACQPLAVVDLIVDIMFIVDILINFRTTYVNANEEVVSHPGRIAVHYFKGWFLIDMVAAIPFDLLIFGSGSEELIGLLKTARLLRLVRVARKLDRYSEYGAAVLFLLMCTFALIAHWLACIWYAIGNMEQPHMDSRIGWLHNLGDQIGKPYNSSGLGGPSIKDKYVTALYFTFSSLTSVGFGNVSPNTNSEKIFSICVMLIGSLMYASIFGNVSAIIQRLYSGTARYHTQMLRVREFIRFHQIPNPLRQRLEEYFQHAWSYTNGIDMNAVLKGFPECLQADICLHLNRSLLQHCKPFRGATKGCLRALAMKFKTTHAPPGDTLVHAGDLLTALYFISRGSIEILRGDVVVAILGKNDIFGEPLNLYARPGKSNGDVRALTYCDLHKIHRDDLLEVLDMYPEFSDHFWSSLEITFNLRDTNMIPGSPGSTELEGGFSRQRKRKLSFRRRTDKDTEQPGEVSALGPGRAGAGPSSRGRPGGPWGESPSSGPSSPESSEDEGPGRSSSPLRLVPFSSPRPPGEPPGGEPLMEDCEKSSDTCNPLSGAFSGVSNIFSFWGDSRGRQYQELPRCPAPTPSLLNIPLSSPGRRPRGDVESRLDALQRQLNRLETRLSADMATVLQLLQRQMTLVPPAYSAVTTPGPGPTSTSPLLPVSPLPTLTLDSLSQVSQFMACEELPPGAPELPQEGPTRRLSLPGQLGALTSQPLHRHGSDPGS
Data set [7] has as its target T1, hERG (KCNH2). The data set is described as follows: Inhibition of human ERG at 1 uM by automated patch-clamp assay relative to control.

As for `C[C@@H](c1ccc2ccc(O[C@H]3CC[C@@H](C)CC3)c(C(F)(F)F)c2c1)N1C2CCC1CC(C(=O)O)C2` (some centres not stated), the Fu turned out to be 0.18% in data set [1] and 0.22% in data set [2]. Further, the concentration at 4 h in data set [3] was 103 ng/mL. This compound also registered a CL/F in data set [4] of 94 mL/min/kg. Besides, in data set [5], the Kp at 4 h was 0.8.

Turning to `C[C@H]1CC[C@@H](Oc2ccc3cc(CN4C5CCCC4CC(C(=O)O)C5)ccc3c2C(F)(F)F)CC1` (some centres not stated), the IC50 on Autotaxin was 38 nM. At 10 µM the inhibition against hERG (KCNH2) [6] was 52.7%. The same compound came in with an inhibition at 1 µM on hERG (KCNH2) [7] of 1.6%.

As to `C[C@@H](c1ccc2ccc(O[C@H]3CC[C@@H](C)CC3)c(C(F)(F)F)c2c1)N1C2CCCC1CC(C(=O)O)C2` (some centres not stated), the IC50 on Autotaxin worked out at 3.6 nM. Also, at hERG (KCNH2) [6], the inhibition at 10 µM was found to be 24.4%. The compound further gave an inhibition at 1 µM at hERG (KCNH2) [7] of 4.6%.

Turning to `O=C(O)CCCNC(=O)c1ccc2c(C(F)(F)F)c(O[C@H]3CC[C@@H](C(F)(F)F)CC3)ccc2c1`, at Autotaxin, the IC50 is 3700 nM.

In the case of `C[C@H]1CC[C@@H](Oc2ccc3ccc(CN4C5CCC4CC(C(=O)O)C5)cc3c2C(F)(F)F)CC1` (some centres not stated), the IC50 on Autotaxin was 100 nM. This compound returned an inhibition at 10 µM at hERG (KCNH2) [6] of 65%. Moreover, 1 µM produced 6% inhibition on hERG (KCNH2) [7].

Consider `C[C@H](c1ccc2ccc(O[C@H]3CC[C@@H](C)CC3)c(C(F)(F)F)c2c1)N1C2CCCC1CC(C(=O)O)C2` (some centres not stated), for which the IC50 at Autotaxin stood at 330 nM. This compound came in with an inhibition at 10 µM against hERG (KCNH2) [6] of 29.6%. Further, the inhibition at 1 µM against hERG (KCNH2) [7] was determined as 8.4%.

As for `O=C(O)C1CCN(Cc2ccc3c(C(F)(F)F)c(O[C@H]4CC[C@@H](C(F)(F)F)CC4)ccc3c2)CC1`, at Autotaxin, the IC50 is 370 nM. Also, the inhibition at 10 µM at hERG (KCNH2) [6] is 86.8%. For the same compound, on hERG (KCNH2) [7], at 1 µM the inhibition was 6.6%.

As to `CCCCCCCCCCCCCC(=O)OC[C@@H](O)COP(=O)(O)O`, the IC50 at Autotaxin was 110 nM.

As for `C[C@H]1CC[C@@H](Oc2ccc3ccc(CN4C5CCCC4CC(C(=O)O)C5)cc3c2C(F)(F)F)CC1` (some centres not stated), at Autotaxin, the IC50 worked out at 8.2 nM. Moreover, 10 µM produced 84% inhibition against hERG (KCNH2) [6]. This compound also yielded an inhibition at 1 µM on hERG (KCNH2) [7] of 12%.

Take `O=C(NCCCP(=O)(O)O)c1ccc2c(C(F)(F)F)c(O[C@H]3CC[C@@H](C(F)(F)F)CC3)ccc2c1`: the IC50 at Autotaxin amounted to 28 nM.

For the compound `O=C(O)CCCNCc1ccc2c(C(F)(F)F)c(O[C@H]3CC[C@@H](C(F)(F)F)CC3)ccc2c1`, the IC50 on Autotaxin stood at 1300 nM.

The CL/F is the apparent clearance, not corrected for the fraction that reaches the circulation. A word on the IC50: it is the midpoint of a concentration-inhibition curve. For orientation: inhibition means how much of the control response was suppressed. The low end stands for a response near the control, the high end for a response far below the control.
